Structures can show the parent of a compound that is named as a salt.
Biological target: PAF receptor (Oryctolagus cuniculus, UniProt G1TEI7)
Experiment: PAF receptor binding assay: inhibition of specific [3H]C18-PAF binding to rabbit platelet membranes
Conditions: 0.6 nM [3H]C18-PAF, 60 min, 22-23 °C, Ki from IC50 (Cheng and Prusoff), read-out: Ki (PAF Receptor Binding Activity)
Experimental: The ability of representative compounds of the present invention to inhibit PAF activity was determined in an in vitro test using the following method.
Citrated whole rabbit blood was obtained from Pel-Freez (Rogers, AR). Rabbit platelets were prepared by centrifugation and washing. The platelets were lysed by freeze-thawing and sonication; platelet membranes were prepared by centrifugation and washing. Final membrane preparations were stored frozen in 10 mM Tris/5 mM MgCl2 /2 mM EDTA (TME buffer, pH 7.0) with 0.25M sucrose added for membrane stabilization.
The standard PAF receptor binding assay contained 10 μg platelet membrane protein, 0.6 nM [^3 H]C18 -PAF (from Amersham or New England Nuclear; specific activity 120-180 Ci/mmol), with and without test compound, in "binding buffer" consisting of TME with 0.25% bovine serum albumin added (Sigma, RIA grade). The final volume of the assay was 100 μl. The assay was conducted in Millititre-GV™ (Millipore Corp.) filtration plates; incubation time was for 60 minutes at room temperature (22°-23° C.). "Specific binding" was operationally defined as the arithmetic difference between "total binding" of 0.6 nM [^3 H]C18 -PAF (in the abasence of added PAF) and "nonspecific binding" (in the presence of 1 μM PAF). After the prescribed incubation, platelet membranes were filtered under vacuum, and washed with 1 milliliter of "binding buffer". The filters were dried and removed. The bound radioactivity was quantitated with a Berthold TLC-Linear Analyzer model LB2842.
Dose-response curves of inhibition of specific [^3 H]C18 -PAF binding by test compounds were conducted in triplicate, with at least four doses covering the active range. Experiments were repeated at least once. IC50 values (concentration producing 50% inhibition) were determined by point-to-point evaluation. Ki values of inhibitory binding constants were calculated according to the method of Cheng and Prusoff [Biochem. Pharmacol. 22 (1973) 3099-3108] whereby [formula]
The values of Ki for representative compounds of the present invention appear in Table 1.

PAF receptor, sequence (G1TEI7 1-342): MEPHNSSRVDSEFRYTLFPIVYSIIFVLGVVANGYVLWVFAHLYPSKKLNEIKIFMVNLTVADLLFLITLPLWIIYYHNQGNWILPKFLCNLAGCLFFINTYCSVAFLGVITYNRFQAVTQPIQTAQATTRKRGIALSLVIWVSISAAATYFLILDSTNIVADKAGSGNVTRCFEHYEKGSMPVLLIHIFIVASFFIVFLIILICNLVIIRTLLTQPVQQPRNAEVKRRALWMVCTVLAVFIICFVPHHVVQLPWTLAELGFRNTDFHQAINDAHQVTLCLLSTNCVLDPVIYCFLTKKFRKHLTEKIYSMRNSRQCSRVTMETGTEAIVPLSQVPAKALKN

| SMILES | Ki [nM] |
| --- | --- |
| CC(C)(C)OC(=O)n1cc(C(=O)[C@@H]2CS[C@@H](c3cccnc3)S2)c2ccccc21 (relative stereo) [Example 30, trans 1-tert-butoxycarbonyl-3-[2-(3-pyridinyl)dithiolan-4-oyl]indole oxalate] | 900 |
| CC(C)(C)OC(=O)n1cc(C(=O)C2CSC(c3cccnc3)N2)c2ccccc21 (centres unmarked) [Example 28, 1-tert-butoxycarbonyl-3-[2-(3-pyridinyl)thiazolid-4-oyl]indole oxalate] | 2 |
| O=C(c1cn(S(=O)(=O)c2ccccc2)c2ccccc12)C1CSC(c2cccnc2)N1 (centres unmarked) [Example 36, 1-phenylsulfonyl-3-[2-(3-pyridinyl)thiazolid-4-oyl]indole] | 30 |
| O=C(C1CSC(c2cccnc2)N1)n1ccc2c(Cl)cccc21 (centres unmarked) [Example 5, 1-[2-(3-pyridinyl)thiazolid-4-oyl]-4-chloroindole dihydrochloride] | 33 |
| CN(C)C(=O)n1cc(C(=O)C2CSC(c3cccnc3)N2)c2ccc(OCc3ccccc3)cc21 (centres unmarked) [Example 52, 1-dimethylcarbamoyl-6-phenylmethoxy-3-[2-(3-pyridinyl)thiazolid-4-oyl]indole] | 1 |
| O=C(c1c[nH]c2cc(OCc3ccccc3)ccc12)C1CSC(c2cccnc2)N1 (centres unmarked) [Example 34, 6-phenylmethoxy-3-[2-(3-pyridinyl)thiazolid-4-oyl]indole] | 2 |
| Cc1c(C(=O)C2CSC(c3cccnc3)N2)c2ccccc2n1C(=O)OC(C)(C)C (centres unmarked) [Example 40, 1-tert-butoxycarbonyl-2-methyl-3-[2-(3-pyridinyl)thiazolid-4-oyl]indole oxalate] | 10 |
| CN(C)C(=O)n1cc(C(=O)C2CSC(c3cccnc3)N2S(C)(=O)=O)c2ccccc21 (centres unmarked) [Example 112, 1-dimethylcarbamoyl-3-[2-(3-pyridinyl)-3-methylsulfonylthiazolid-4-oyl]indole] | 4800 |
| CN(C)C(=O)n1cc(C(=O)C2CSC(c3cccnc3)N2)c2ccc(Oc3ccc(F)cc3)cc21 (centres unmarked) [Example 71, 1-dimethylcarbamoyl-3-[2-(3-pyridinyl)thiazolid-4-oyl]-6-(4-fluorophenoxy)indole] | 2 |
| O=C(c1c[nH]c2c(OCc3ccccc3)cccc12)C1CSC(c2cccnc2)N1 (centres unmarked) [Example 50, 7-phenylmethoxy-3-[2-(3-pyridinyl)thiazolid-4-oyl]indole] | 1 |
| O=CN1C(C(=O)c2cn(C(=O)N3CCOCC3)c3ccccc23)CSC1c1cccnc1 (centres unmarked) [Example 92, 1-(4-morpholinocarbonyl)-3-[2-(3-pyridinyl)-3-formylthiazolid-4-oyl]indole] | 150 |
| CC(=O)N1C(C(=O)c2c[nH]c3ccccc23)CSC1c1cccnc1 (centres unmarked) [Example 98, 3-[2-(3-pyridinyl)-3-acetylthiazolid-4-oyl]indole] | 18000 |
| CC(=O)N1C(C(=O)c2cn(C(=O)OC(C)(C)C)c3ccccc23)CSC1c1cccnc1 (centres unmarked) [Example 57, 1-tert-butoxycarbonyl-3-[2-(3-pyridinyl)-3-acetylthiazolid-4-oyl]indole] | 10 |
| CN(C)C(=O)n1cc(C(=O)[C@@H]2CS[C@@H](c3cccnc3)N2C(=O)C(F)(F)F)c2ccccc21 (relative stereo) [Example 106, trans-1-dimethylcarbamoyl-3-[2-(3-pyridinyl)-3-trifluoroacetylthiazolid-4-oyl]indole] | 80 |
| O=C(c1cn(C(=O)OCc2ccccc2)c2ccccc12)C1CSC(c2cccnc2)N1 (centres unmarked) [Example 45, 1-phenylmethoxycarbonyl-3-[2-(pyridinyl)thiazolid-4-oyl]indole oxalate] | 3 |
| CN(C(=O)n1cc(C(=O)C2CSC(c3cccnc3)N2)c2ccccc21)c1ccccc1 (centres unmarked) [Example 49, 1-(N-methyl, N-phenyl)-3-[2-(3-pyridinyl)thiazolid-4-oyl]indole] | 25 |
| O=C(C1CSC(c2cccnc2)N1)n1ccc2cc(OCc3ccccc3)ccc21 (centres unmarked) [Example 11, 1-(2-(3-pyridinyl)thiazolid-4-oyl)-5-phenylmethoxyindole dihydrochloride] | 15 |
| O=C(c1ccccc1)c1ccc2ccn(C(=O)C3CSC(c4cccnc4)N3)c2c1 (centres unmarked) [Example 17, 1-[2-(3-pyridinyl)thiazolid-4-oyl]-6-benzoylindole] | 93 |
| O=C(c1c[nH]c2cccc(OCc3ccccc3)c12)C1CSC(c2cccnc2)N1 (centres unmarked) [Example 24, 3-[2-(3-pyridinyl)thiazolid-4-oyl-4-phenylmethoxyindole oxalate] | 13 |
| CN(C)C(=O)n1cc(C(=O)[C@@H]2CS[C@@H](c3cccnc3)N2C(=O)C(F)(F)F)c2ccccc21 (relative stereo) [Example 107, trans-1-dimethylcarbamoyl 1-34 2-(3-pyridinyl)-3-trifluoroacetylthiazolid-4-oyl]indole oxalate] | 75 |
| Cc1ccc2c(c1)c(C(=O)C1CSC(c3cccnc3)N1)c(C)n2C(=O)OC(C)(C)C (centres unmarked) [Example 67, 1-tert-butoxycarbonyl-2,5-dimethyl-3-[2-[3-pyridinyl)thiazolid-4-oyl]indole oxalate] | 39 |
| CN(C)C(=O)n1cc(C(=O)C2CSC(c3cccnc3)N2)c2cccc(OCc3ccccc3)c21 (centres unmarked) [Example 51, 1-dimethylcarbamoyl)-7-phenylmethoxy-3-[2-(3-pyridinyl)thiazolid-4-oyl]indole oxalate] | 13 |
| Cc1c(C(=O)C2CSC(c3cccnc3)N2)c2ccccc2n1C(=O)N(C)C (centres unmarked) [Example 65, 1-dimethylcarbamoyl-2-methyl-3-[2-(3-pyridyl)thiazolid-4-oyl]indole] | 9 |
| CC(C)(C)OC(=O)n1cc(C(=O)C2CSC(c3cccnc3)N2C=O)c2ccccc21 (centres unmarked) [Example 56, 1-tert-butoxycarbonyl-3-[2-(3-pyridinyl)-3-formylcarbonylthiazolid-4-oyl]indole] | 150 |
| CCN(CC)C(=O)n1cc(C(=O)C2CSC(c3cccnc3)N2)c2ccccc21 (centres unmarked) [Example 48, 1-diethylcarbamoyl-3-[2-(3-pyridinyl)thiazolid-4-oyl]indole] | 1 |
| Cc1ccc2c(C(=O)C3CSC(c4cccnc4)N3)cn(C(=O)OC(C)(C)C)c2c1 (centres unmarked) [Example 81, 1-tert-butoxycarbonyl-3-[2-(3-pyridinyl)thiazolid-4-oyl]-6-methylindole oxalate] | 2 |
| O=C(C1CSC(c2cccnc2)S1)n1ccc2ccccc21 (centres unmarked) [Example 26, 1-[2-(3-pyridinyl)dithiolan-4-oyl]indole oxalate] | 360 |

Same assay, conditions: Ki (PAF Receptor Binding Activity), 0.6 nM [3H]C18-PAF, 60 min, 22-23 °C, Ki from IC50 (Cheng and Prusoff)

| SMILES | Ki [nM] |
| --- | --- |
| O=C(c1c[nH]c2cc(O)ccc12)C1CSC(c2cccnc2)N1 (centres unmarked) [Example 88, 3-[2-(3-pyridinyl)thiazolid-4-oyl]-6-hydroxyindole] | 150 |
| O=C(c1c[nH]c2ccccc12)C1CSC(c2cccnc2)N1 (centres unmarked) [Example 20, 3-[2-(3-pyridinyl)thiazolid-4-oyl]indole oxalate] | 4 |
| O=C(C1CSC(c2cccnc2)N1)n1ccc2c(Br)cccc21 (centres unmarked) [Example 6, 1-[2-(3-pyridinyl)thiazolid-4-oyl]-4-bromoindole dihydrochloride] | 53 |
| CN(C)C(=O)Cn1cc(C(=O)C2CSC(c3cccnc3)N2)c2ccccc21 (centres unmarked) [Example 116, 1-(N,N-dimethylcarbamoylmethyl)-3-[2-(3-pyridinyl)thiazolid-4-oyl]indole] | 7 |
| O=C(O)CCn1cc(C(=O)C2CSC(c3cccnc3)N2)c2ccccc21 (centres unmarked) [Example 119, 1-carboxyethyl-3-[2-(3-pyridinyl)thiazolid-4-oyl]indole] | 20 |

From patent US5382670A, “Platelet activating factor antagonists” (priority 1993, dated 1995)
